How the values were obtained:
HepG2 cell line = experiment: Staurosporine-induced apoptosis in HepG2 cells: caspase 3/7 activity; type: cell-based; details: Homo sapiens, 16 h pre-treatment, then 10 μM staurosporin for 4 h, p<0.001
Protocol: In order to evaluate the effect of the compounds to protect hepatocytes from cell death, apoptosis was induced by staurosporine in the human hepatoblastoma-derived HepG2 cell line (ECACC, #85011430, Sigma-Aldrich). HepG2 was cultured in high-glucose DMEM medium (#41965, Gibco, France) supplemented with 10% of fetal bovine serum (FBS, #10270, Gibco), 1% penicillin/streptomycin (#15140, Gibco), 1% sodium pyruvate (#11360, Gibco) and 1% MEM non-essential amino acids (#11140, Gibco) in a 5% CO2 incubator at 37° C.
To evaluate caspase 3/7 activity, which is a surrogate marker of apoptosis, 1.5×10^4 cells were plated in a 384-well plate (#781080, Greiner, France). After cell adherence (8 hours), cells were serum starved for 16h in the presence of compounds (dose ranging from 0.3 to 10 µM) or vehicle. Thereafter, cells were treated with 10 μM staurosporin (#569397, Sigma-Aldrich, Germany) supplemented with compound for additional 4 hours before cell lysis and caspase activity measurement.
Caspase 3/7 activity was measured using Caspase Glow™ 3/7 assay (#G8093, Promega, USA). Luminescence was measured using a Spark microplate reader (#30086376, Tecan, USA). The amount of luminescence (RLU) directly correlates with caspase 3/7 activity.

C57BL/6J male mice = experiment: LPS/GalN mouse model of acute liver failure: serum hepatic markers and cytokines; type: in vivo; details: 1 mg/kg/day oral gavage for 3 days before LPS/GalN injection, serum 6 h after LPS/GalN, vs vehicle
Description: Low doses of LPS in combination with the hepatotoxic agent D-Galactososamine (GalN) promote specific liver injury in mice and induce the inflammatory cytokines production, thus recapitulating the clinical picture of acute liver injury in human (Pourcet et al., Gastroenterology, 2018, 154 (5), p 1449-1464.e20). Hepatic injury induced by LPS/GalN is therefore a widely used mouse model to evaluate the effect of pharmacological agents on acute liver failure.
To evaluate the efficacy of the compounds on liver injury and function and the inflammatory response occurring upon acute liver failure, C57BL/6J male mice (8 weeks old, Janvier Labs) received an intraperitoneal injection of 0.025 mg/kg LPS (Escherichia coli 0111: B4, #L2630, Sigma-Aldrich) supplemented with 700 mg/kg D-Galactosamine (GalN, G0500, Sigma-Aldrich).
Cpd.1 (1 mg/kg/day) or vehicle (carboxymethylcellulose 1%, 0.1% Tween 80) was administered by oral gavage during the three days before LPS/GalN injection (n=10-12 per group). Mice were sacrificed 6h after LPS/GalN injection. Blood samples were obtained from retro-orbital sinus puncture on animals slightly asleep with isoflurane (Isoflurin 1000 mg/g, GTIN 03760087152678, Axience) just before sacrifice. A group of mice (n=4) received an intraperitoneal injection to be used as healthy controls.
Serum aspartate aminotransferase (ASAT) was measured using Randox kit for Daytona Plus automate (AS 8306) according to the manufacturer recommendation. ASAT enzymatically transforms alpha-oxoglutarate and L-aspartate into L-glutamate and oxaloacetate. In the presence of NADH, the generated oxaloacetate is converted by malate dehydrogenase to form L-malate and NAD+. The kinetics of the reaction is studied and allows the concentration of ASAT to be calculated.
Serum alanine aminotransferase (ALAT) was measured using Randox kit for Daytona Plus automate (AL 8304) according to the manufacturer recommendation. ALAT enzymatically transforms alpha-oxoglutarate and L-alanine into L-glutamate and pyruvate. In the presence of NADH, the generated pyruvate is converted by lactate dehydrogenase to form L-lactate and NAD+. The kinetics of the reaction is studied and allows the concentration of ALAT to be calculated.
Serum total bilirubin was measured using Randox kit for Daytona Plus automate (BR 8377) according to the manufacturer recommendation. The bilirubin is oxidized by vanadate at about pH 2.9 to produce biliverdin. In the presence of detergent and vanadate, both conjugate and unconjugated bilirubin are oxidized. This oxidation reaction causes a decrease in the optical density of the yellow color, which is specific to bilirubin. The decrease in optical density at 450/546 nm is proportional to the total bilirubin concentration in the sample.
Serum total bile acids were measured using Randox kit for Daytona Plus automate (BI 3863) according to the manufacturer recommendation. In the presence of Thio-NAD, the enzyme 3-α-hydroxysteroid dehydrogenase (3-α-HSD) converts bile acids to 3-keto steroids and Thio-NADH. In the presence of excess NADH, the enzyme cycling occurs efficiently and the rate of formation of Thio-NADH is determined by measuring specific change of absorbance at 405 nm.
The concentration of serum interleukin-6 (IL6) was determined using a multiplex sandwich ELISA system (Mouse Magnetic Luminex #LSXAMSM-06, Biotechne) according to the manufacturer instructions. […] After washing, IL6 was detected through the addition of biotinylated antibodies. […]

Compound | inhibition at 3 µM (HepG2 cell line; 3 μM compound) | reduction of total bilirubin (C57BL/6J male mice; p=0.003) | reduction of total bile acids (C57BL/6J male mice; p=0.004) | change of pro-inflammatory cytokine IL6 (serum) (C57BL/6J male mice; p=0.01) | decrease of serum ASAT (C57BL/6J male mice; p=0.01) | decrease of serum ALAT (C57BL/6J male mice; p=0.03) | inhibition at 10 µM (HepG2 cell line; 10 μM compound)
COc1ccc(OC(=O)N(CC(=O)O)Cc2ccc(OCCc3nc(-c4ccccc4)oc3C)cc2)cc1 [Cpd.2, N-[(4-methoxyphenoxy)carbonyl]-N-[[4-[2-(5-methyl-2-phenyl-4-oxazolyl)ethoxy]phenyl]methyl]glycine] | 24% | – | – | – | – | – | –
CCO[C@@H](Cc1ccc(OCCc2ccc(OS(C)(=O)=O)cc2)cc1)C(=O)O [Cpd. 1, (S)-2-ethoxy-3-(4-(4-((methylsulfonyl)oxy)phenethoxy)phenyl) propanoic acid] | – | 73% | 79% | −78% | 66% | 57% | 12%

— patent publication US20260137661A1, “PPAR-ALPHA/GAMMA AGONIST FOR USE IN THE TREATMENT OF LIVER FAILURE” (Genfit, priority 2022, published 2026)
